According to the NIST ThermoML archive (doi:10.1021/je101012n):
Numbers after ± are expanded uncertainties.

Experiment: mn = molality of the nth substance listed, in mol/kg
Details: 101 kPa, Liquid, Alternating current cell with electrodes

O=C([O-])O.[K+] [potassium bicarbonate] + O
electrical conductivity [S/m]
Details	278.15 K	283.15 K	298.15 K	308.15 K	318.15 K	343.15 K	363.15 K
m1 = 0.001	0.007403 ± 3e-05	0.00834 ± 3e-05	0.01179 ± 5e-05	0.01416 ± 5.7e-05	0.01673 ± 7e-05	0.02401 ± 0.0001	0.03038 ± 0.00012
m1 = 0.00992	0.0687 ± 0.0003	0.07877 ± 0.00032	0.1107 ± 0.0004	0.1335 ± 0.0005	0.1573 ± 0.0006	0.2237 ± 0.0009	0.2794 ± 0.0011
m1 = 0.09998	0.6141 ± 0.0025	0.7003 ± 0.0028	0.9852 ± 0.0039	1.176 ± 0.0047	1.383 ± 0.0055	1.963 ± 0.0079	2.446 ± 0.0098
m1 = 0.5001	2.664 ± 0.011	3.031 ± 0.012	4.206 ± 0.017	5.066 ± 0.02	5.94 ± 0.024	8.391 ± 0.034	10.49 ± 0.042
m1 = 0.9999	4.748 ± 0.019	5.358 ± 0.021	7.365 ± 0.029	8.802 ± 0.035	10.31 ± 0.041	14.3 ± 0.057	17.93 ± 0.072

[F-].[Na+] [sodium fluoride] + O
electrical conductivity [S/m]
Details	278.15 K	283.15 K	298.15 K	308.15 K	318.15 K	343.15 K	363.15 K
m1 = 8.8e-05	0.0005802 ± 2.3e-06	0.0006955 ± 2.8e-06	0.0009523 ± 3.8e-06	0.00122 ± 5e-06	0.001433 ± 6e-06	0.002014 ± 8e-06	0.00252 ± 1e-05
m1 = 0.00092	0.006016 ± 2.4e-05	0.006909 ± 2.8e-05	0.009683 ± 3.9e-05	0.01152 ± 5e-05	0.01398 ± 6e-05	0.02009 ± 8e-05	0.02474 ± 0.0001
m1 = 0.00878	0.05214 ± 0.00021	0.05994 ± 0.00024	0.08551 ± 0.00034	0.1038 ± 0.0004	0.1234 ± 0.0005	0.1798 ± 0.0007	0.227 ± 0.0009
m1 = 0.0906	0.4638 ± 0.0019	0.5338 ± 0.0021	0.7669 ± 0.0031	0.9341 ± 0.0037	1.112 ± 0.0044	1.621 ± 0.0065	2.042 ± 0.0082
m1 = 0.4176	1.917 ± 0.0077	2.201 ± 0.0088	3.151 ± 0.013	3.824 ± 0.015	4.547 ± 0.018	6.57 ± 0.026	8.137 ± 0.033
m1 = 0.8404	3.432 ± 0.014	3.915 ± 0.016	5.579 ± 0.022	6.791 ± 0.027	7.478 ± 0.03	11.37 ± 0.045	14.54 ± 0.058

O=C([O-])O.[Na+] [sodium bicarbonate] + O
electrical conductivity [S/m]
Details	278.15 K	283.15 K	298.15 K	308.15 K	318.15 K	343.15 K	363.15 K
m1 = 0.00121	0.006911 ± 2.8e-05	0.008034 ± 3.2e-05	0.01162 ± 5e-05	0.01437 ± 5.7e-05	0.01703 ± 7e-05	0.02506 ± 0.0001	0.03284 ± 0.00013
m1 = 0.01187	0.06467 ± 0.00026	0.07485 ± 0.0003	0.1086 ± 0.0004	0.1346 ± 0.0005	0.1589 ± 0.0006	0.234 ± 0.0009	0.3056 ± 0.0012
m1 = 0.1223	0.5728 ± 0.0023	0.6641 ± 0.0027	0.9598 ± 0.0038	1.177 ± 0.0047	1.395 ± 0.0056	2.044 ± 0.0082	2.457 ± 0.0098
m1 = 0.7226	2.634 ± 0.011	3.055 ± 0.012	4.383 ± 0.018	5.346 ± 0.021	6.41 ± 0.026	9.404 ± 0.038	11.39 ± 0.046

O=C([O-])[O-].[Na+].[Na+] [sodium carbonate] + O
electrical conductivity [S/m]
Details	278.15 K	283.15 K	298.15 K	308.15 K	318.15 K	343.15 K	363.15 K
m1 = 0.000912	0.01348 ± 5e-05	0.01603 ± 6e-05	0.02439 ± 0.0001	0.02888 ± 0.00012	0.03495 ± 0.00014	0.05196 ± 0.00021	0.06513 ± 0.00026
m1 = 0.01031	0.1285 ± 0.0005	0.1491 ± 0.0006	0.2182 ± 0.0009	0.2684 ± 0.0011	0.3237 ± 0.0013	0.4867 ± 0.0019	0.6187 ± 0.0025
m1 = 0.09334	0.886 ± 0.0035	1.024 ± 0.0041	1.486 ± 0.0059	1.822 ± 0.0073	2.182 ± 0.0087	3.222 ± 0.013	4.117 ± 0.017
m1 = 0.3041	2.324 ± 0.0093	2.685 ± 0.011	3.893 ± 0.016	4.781 ± 0.019	5.713 ± 0.023	8.362 ± 0.033	10.64 ± 0.043

[Cl-].[Cl-].[Sr+2] [strontium chloride] + O
electrical conductivity [S/m]
Details	278.15 K	283.15 K	298.15 K	308.15 K	318.15 K	343.15 K	363.15 K
m1 = 0.000125	0.002084 ± 8e-06	0.002384 ± 1e-05	0.003331 ± 1.3e-05	0.003972 ± 1.6e-05	0.004689 ± 1.9e-05	0.00678 ± 3e-05	0.00842 ± 3e-05
m1 = 0.00141	0.02222 ± 9e-05	0.02538 ± 0.0001	0.03603 ± 0.00014	0.04353 ± 0.00017	0.05151 ± 0.00021	0.07369 ± 0.00029	0.09235 ± 0.00037
m1 = 0.012	0.1807 ± 0.0007	0.2072 ± 0.0008	0.2926 ± 0.0012	0.3531 ± 0.0014	0.4164 ± 0.0017	0.5927 ± 0.0024	0.7383 ± 0.003
m1 = 0.1313	1.663 ± 0.0067	1.892 ± 0.0076	2.646 ± 0.011	3.174 ± 0.013	3.719 ± 0.015	5.229 ± 0.021	6.184 ± 0.025
m1 = 0.3891	4.194 ± 0.017	4.751 ± 0.019	6.457 ± 0.026	7.797 ± 0.031	9.074 ± 0.036	12.51 ± 0.05	15.38 ± 0.061

O=[N+]([O-])[O-].[K+] [potassium nitrate] + O
electrical conductivity [S/m]
Details	278.15 K	283.15 K	298.15 K	308.15 K	318.15 K	343.15 K	363.15 K
m1 = 0.000103	0.0009389 ± 3.8e-06	0.001073 ± 4e-06	0.001486 ± 6e-06	0.001798 ± 7e-06	0.002048 ± 8e-06	0.00283 ± 1.1e-05	0.00348 ± 1.4e-05
m1 = 0.000997	0.008901 ± 3.6e-05	0.01015 ± 4e-05	0.01411 ± 6e-05	0.01701 ± 7e-05	0.01956 ± 8e-05	0.02717 ± 0.00011	0.0338 ± 0.00014
m1 = 0.01026	0.0874 ± 0.0004	0.09971 ± 0.0004	0.1385 ± 0.0006	0.1664 ± 0.0007	0.1919 ± 0.0008	0.2666 ± 0.0011	0.3287 ± 0.0013
m1 = 0.09972	0.7601 ± 0.003	0.8658 ± 0.0035	1.201 ± 0.0048	1.44 ± 0.0058	1.669 ± 0.0067	2.342 ± 0.0094	2.875 ± 0.011
m1 = 0.4093	2.815 ± 0.011	3.211 ± 0.013	4.407 ± 0.018	5.264 ± 0.021	6.162 ± 0.025	8.59 ± 0.034	10.45 ± 0.042
m1 = 0.7941	4.806 ± 0.019	5.474 ± 0.022	7.428 ± 0.03	8.831 ± 0.035	10.38 ± 0.042	14.63 ± 0.059	16.97 ± 0.068
